Test results published in patent publication US9675664B2, “Compositions, formulations and methods of treating preeclampsia-type disorders of pregnancy” (Women & Infants' Hospital of Rhode Island, priority 2009, dated 2017).

Experiments:
[1] = test system: endothelial cells (EC) and trophoblasts (HTR) crosstalk; assay: In vitro endothelial cell-trophoblast co-culture tube (vacuole) formation assay on matrigel with pregnancy serum; type: cell-based, human; conditions: for rescue of mild PE serum induced disrupted EC-HTR8 crosstalk (tube assay): mild preeclampsia serum (mPE), TTR preincubated at 0.1, 1.0, 10 μg/ml of serum; for rescue of severe PE serum induced disrupted EC-HTR8 crosstalk (tube assay): severe preeclampsia serum (sPE), TTR preincubated at 0.1, 1.0, 10 microgram/ml of serum
Text: The in vitro assay described in this example is based on the premise that during normal pregnancy, fetal derived trophoblasts called the “invasive cytotrophoblasts” invade the maternal decidua and the endothelial cell lined spiral arteries. This phenomenon can be restructured using serum from pregnancy as physiological milieu and culturing human umbilical vein endothelial cells and trophoblasts on basement membrane such as matrigel. […] For additional information see U.S. Provisional Patent Application No. 61/063,491 filed Feb. 4, 2008 and/or Kalkunte, In Vitro and In Vivo Evidence for Lack of Vascular Remodeling by Third Trimester Trophoblasts, Placenta 29: 871-78 (2008).
Recombinantly produced TTR (detected by SDS-PAGE electrophoresis and purity 96%) was obtained from AbD Serotec, Raleigh, N.C. 27604, USA. Recombinant TTR obtained in lyophilized form was reconstituted with sterile phosphate-saline buffer to obtain a final concentration of 1 mg/ml and maintained at >pH 7.0. The solutions were stored as aliquots frozen at −80° C. until use. Thirty minutes prior to experimentation, the aliquots of TTR were thawed, then mixed with serum and incubated at 37° C. for 30 minutes.
The in vitro method further includes incubating a co-culture of human endothelial cells and human trophoblast cells in the presence of serum or plasma obtained from a pregnant person for a period of time sufficient to permit vacuolization (also referred to as “capillary formation” and “tube formation” in FIGS. 2-4), and after incubation determining whether substantial vacuolization in the co-culture has occurred by quantification as described in Example 3.
During pregnancy, angiogenesis is characterized by spiral artery remodeling for which trophoblast invasion into these maternal blood vessels is a prerequisite. The data of FIG. 2 show an in vitro model of interaction of trophoblasts and endothelial cells that mimics spiral artery remodeling. Specifically, 2.5×10^4 endothelial cells labeled red and 2.5×10^4 trophoblasts, labeled green, were co-cultured on matrigel coated plates and stimulated with either NPS (normal pregnancy serum) or severe PES (Preeclampsia Serum) as described above. In the absence of exogenous TTR, serum from severe (FIG. 2 Panel B #5 and C #9) preeclampsia patients blocks the “cross-talk” between endothelial-trophoblast cells, causing obvious differences in architecture as compared to the same cells stimulated under the same conditions with NPS serum (sample L1045; FIG. 2 Panel A, #1).
Briefly, 2.5×10^4 endothelial cells labeled red and 2.5×10^4 trophoblasts, each from different trimesters labeled green (FIG. 2), were co-cultured on matrigel coated plates and stimulated with either NPS or mild PES as described above. […] The number of vacuoles (or tubes) formed per sample were counted and represented in the graph (FIG. 4, mPE with and without TTR). […] Statistical significance of experimental differences was assessed using Student's paired t-test. […]
The in vitro studies conducted in Example 2 were quantified by counting the number of tube like structures termed as “vacuole” under fluorescence microscope (Nikon Eclipse TS 100 coupled with CCD camera) in four different fields at 4× magnification. […]

[2] = test system: Pregnant IL-10−/− mice; assay: In vivo rescue of PE serum induced preeclampsia-like symptoms in pregnant IL-10-/- mice
Procedure: Recombinantly produced TTR (detected by SDS-PAGE electrophoresis and purity 96%) was obtained from AbD Serotec, Raleigh, N.C. 27604, USA. Recombinant TTR obtained in lyophilized form was reconstituted with sterile phosphate-saline buffer to obtain a final concentration of 1 mg/ml and maintained at >pH 7.0. The solutions were stored as aliquots and frozen at −80° C. until use. Thirty minutes prior to experimentation, the aliquots of TTR were thawed, then mixed with 100 μl of PE serum samples. Pregnant IL-10^−/− mice (C57BL/6, Jackson Labs, USA) were then injected intraperitoneally on gestational day (g.d.) 10 at a TTR dose of 20 microgram/mouse. The gestational period in mice is 20 days. Similarly, 100 μl PE serum or normal pregnancy serum was administered to different set of animals as control. On g.d.16/17, urine and serum samples were collected from each mouse, and blood pressure measurements were taken. Blood pressure was taken by an established tail-cuff method which utilizes a programmed sphygmomanometer. The animals adapted for 5 min using a warming test chamber (IITC Life Science Inc, Woodland Hills, Calif.) at controlled temperature (35° C.). The measurements were carried out on day 17 of pregnancy using DigiMed blood pressure analyzer, (MicroMed, Louisville, Ky., 40222-4683). Each measurement of blood pressure is an average of three readings at 1 min intervals from a number of animals (˜3-5 each). Systolic blood pressure was compared among non-pregnant and pregnant mice. All animals were age matched. Data was analyzed using Digi-Med® System Integrator™ Model 400 (DMSI-400).
Total urinary albumen was measures using Albumin (mouse) ELISA kit (ALPCO Diagnostics, Salem, N.H.) and urinary creatinine was measured using Metra Creatinine Kit (Quidel Corporation, San Diego, Calif.). Protinuria as represented as a ration of urinary albumin to creatinine (expressed as μg/mg). (Baseline values seen in mice range from 100-400 μg/mg.)
On g.d. 17 the mice were euthanized, the uterine horns were extracted, photographed and pregnancy outcomes were recorded. […] 10 in IL10^−/− mice. The effects in response to only one administration of serum (100 μl) were evaluated on g.d. 17.

[3] = endogenous TTR; cited from earlier work
[4] = sPE serum 100 μl i.p. on g.d. 10 with co-administered TTR 20 microgram/mouse, evaluated g.d. 17

transthyretin [recombinant TTR]
rescue of mild PE serum induced disrupted EC-HTR8 crosstalk (tube assay) [1]: substantially rescues | rescue of mild PE serum induced disrupted EC-HTR8 crosstalk (tube assay) ([1]; listed as Recombinant TTR): rescues mPE serum induced disruption | effect on NPS mediated tube formation ([1]; normal pregnancy serum (NPS), TTR 0.1, 1.0, 10 microgram/ml of serum): no significant effect | rescue of severe PE serum induced disrupted EC-HTR8 crosstalk (tube assay) [1]: substantially rescues | rescue of severe PE serum induced disrupted EC-HTR8 crosstalk (tube assay) ([1]; listed as Recombinant TTR): rescues sPE serum induced disruption | TTR levels in mouse serum (SELDI-TOF relative intensity) ([2]; reduction induced by severe preeclampsia serum, FIG. 6): rescued | intrauterine growth restriction (fetal weight) [2, 4]: rescues sPE serum induced anomalies | systolic blood pressure (hypertension) [2, 4]: rescues sPE serum induced anomalies | proteinuria (urinary albumin to creatinine ratio) ([2]; sPE serum 100 μl i.p. on g.d. 10 with co-administered TTR 20 microgram/mouse, urine g.d. 16/17): rescues sPE serum induced anomalies

transthyretin [endogenous TTR]
half life [3]: approximately 2 days
